Measurements as given in patent publication US20260015339A1, “CALIX[4]ARENES WITH HIGH ANTICANCER ACTIVITY” (UNIVERSITE GRENOBLE ALPES, priority 2023, published 2026).

How the values were obtained:
[1] = test system: H322 lung carcinoma cell line; assay: Inhibition of H322 cell proliferation (cell count); type: cell-based; conditions: 3 μM, until 72 hours
Method: The inhibition of a H322 lung carcinoma cell line proliferation by the calix[4]arene of the formula (2) was determined by exposure of said H322 lung carcinoma cell line to a concentration of 3 μM of the calix[4]arene of the formula (2) until 72 hours. The absolute number of cells were counted in the treated and untreated conditions before treatment (N0) and after 72 hours (Nt).
The FIG. 3 is a graph showing: • the profile of the proliferation index Nt/N0 of the H322 cells after exposure with the calix[4]arene of the formula (2) with respect to the time (i.e. the curve entitled “calix[4]arene (2)”), • the profile of the proliferation index Nt/N0 of the H322 cells without any exposure with the calix[4]arene of the formula (2) with respect to the time (i.e. the curve entitled “untreated”).

[2] = test system: H322 lung carcinoma cells; assay: MTS cytotoxicity assay, combination with CuCl2, H322; conditions: NCI-H322, 72 h, read-out: percentage of cell viability
Method: H322 lung carcinoma cells were seeded in 96-well plates together with the calix[4]arene of the formula (2) and CuCl2. Cells were grown in RPMI-1640 supplemented with GlutaMAX™ (Gibco™) and fetal calf serum (FCS, 10%) treated with a broad range of concentrations of the calix[4]arene of the formula (2) or/and CuCl2 from Merck. After 72 hours of treatment, the cytotoxicity was measured by means of the IC50 value, using the kit “CellTiter 96R AQuous One Solution Cell Proliferation Assay (MTS)” from Promega™ Following 30 minutes of incubation with the MTS reagent, the endpoint measurements were done in triplicate at 485 nm, using a fluorescence plate reader.

[3] = test system: Non-malignant HaCaT cells; assay: MTS cytotoxicity assay on HaCaT; type: cell-based; conditions: Homo sapiens, 72 hours of treatment
Method: Non-malignant HaCaT cells were seeded in 96-well plates together with the calix[4]arene of the formula (2). Cells were grown in RPMI-1640 supplemented with GlutaMAX™ (Gibco™) and fetal calf serum (FCS, 20%) and treated with a broad range of concentrations of the calix[4]arene of the formula (2). After 72 hours of treatment, the cytotoxicity was measured by means of the IC50 value, using the kit “CellTiter 96R AQuous One Solution Cell Proliferation Assay (MTS)” from Promega™. Following 30 minutes of incubation with the MTS reagent, the endpoint measurements were done in triplicate at 485 nm, using a fluorescence plate reader.

MDA MB 435 = assay: PROLiFiler-Cell Panel Screening (CellTiterGlo); type: cell-based; conditions: Homo sapiens; Skin, MDA MB 435, 72 hours
Method: (§1) For the assays, cells were seeded in white cell culture-treated flat and clear bottom 384-well multiwall plates and incubated at 37° C. overnight before the calix[4]arene of the formula (2) or the reference compound were added. After incubation for 72 hours at 37° C. at 5% or 10% CO2 depending on the medium, cell plates were equilibrated to room temperature (i.e. 20° C.) for one hour, CellTiterGlo® reagent from the firm Promega was added and luminescence was measured approximately an hour later using a luminometer.
(§2) Raw data were converted into percent cell viability relative to the high and low control, which were set to 100% and 0%, respectively.

NCI-H1563 = assay: PROLiFiler-Cell Panel Screening (CellTiterGlo); type: cell-based; conditions: Homo sapiens; Lung, NCI-H1563, 72 hours
Method: as §1, §2

HCC38 = assay: PROLiFiler-Cell Panel Screening (CellTiterGlo); type: cell-based; conditions: Homo sapiens; Breast, HCC38, 72 hours
Method: as §1, §2

KARPAS 299 = assay: PROLiFiler-Cell Panel Screening (CellTiterGlo); type: cell-based; conditions: Homo sapiens; Blood, KARPAS 299, 72 hours
Method: as §1, §2

Colo 205 = assay: PROLiFiler-Cell Panel Screening (CellTiterGlo); type: cell-based; conditions: Homo sapiens; Colon, Colo 205, 72 hours
Method: as §1, §2

U118MG = assay: PROLiFiler-Cell Panel Screening (CellTiterGlo); type: cell-based; conditions: Homo sapiens, U-118-MG, Brain, 72 hours
Method: as §1, §2

SiHa = assay: PROLiFiler-Cell Panel Screening (CellTiterGlo); type: cell-based; conditions: Homo sapiens, Cervix, 72 hours
Method: as §1, §2

EFO-27 = assay: PROLiFiler-Cell Panel Screening (CellTiterGlo); type: cell-based; conditions: Homo sapiens; Ovary, EFO-27, 72 hours
Method: as §1, §2

U87MG = assay: PROLiFiler-Cell Panel Screening (CellTiterGlo); type: cell-based; conditions: Homo sapiens, U-87 MG, Brain, 72 hours
Method: as §1, §2

MOLM-13 = assay: PROLiFiler-Cell Panel Screening (CellTiterGlo); type: cell-based; conditions: Homo sapiens; Blood, MOLM-13, 72 hours
Method: as §1, §2

SK-OV3 = assay: PROLiFiler-Cell Panel Screening (CellTiterGlo); type: cell-based; conditions: Homo sapiens, SK-OV-3; Ovary, SK-OV3, 72 hours
Method: as §1, §2

HT-29 = assay: PROLiFiler-Cell Panel Screening (CellTiterGlo); type: cell-based; conditions: Homo sapiens; Colon, HT-29, 72 hours
Method: as §1, §2

HL-60 = assay: PROLiFiler-Cell Panel Screening (CellTiterGlo); type: cell-based; conditions: Homo sapiens; Blood, HL-60, 72 hours
Method: as §1, §2

COV434 = assay: PROLiFiler-Cell Panel Screening (CellTiterGlo); type: cell-based; conditions: Ovary, COV434, 72 hours
Method: as §1, §2

NCI-H1838 = assay: PROLiFiler-Cell Panel Screening (CellTiterGlo); type: cell-based; conditions: Homo sapiens; Lung, NCI-H1838, 72 hours
Method: as §1, §2

T84 = assay: PROLiFiler-Cell Panel Screening (CellTiterGlo); type: cell-based; conditions: Homo sapiens; Colon, T84, 72 hours
Method: as §1, §2

COR-L279 = assay: PROLiFiler-Cell Panel Screening (CellTiterGlo); type: cell-based; conditions: Homo sapiens; Lung, COR-L279, 72 hours
Method: as §1, §2

Hep3B2.1-7 = assay: PROLiFiler-Cell Panel Screening (CellTiterGlo); type: cell-based; conditions: Liver, Hep3B2.1-7, 72 hours
Method: as §1, §2

LnCap = assay: PROLiFiler-Cell Panel Screening (CellTiterGlo); type: cell-based; conditions: Homo sapiens, Prostate, 72 hours
Method: as §1, §2

A375 = assay: PROLiFiler-Cell Panel Screening (CellTiterGlo); type: cell-based; conditions: Homo sapiens, A-375; Skin, A375, 72 hours
Method: as §1, §2

Caki-2 = assay: PROLiFiler-Cell Panel Screening (CellTiterGlo); type: cell-based; conditions: Homo sapiens; Kidney, Caki-2, 72 hours
Method: as §1, §2

DLD-1 = assay: PROLiFiler-Cell Panel Screening (CellTiterGlo); type: cell-based; conditions: Homo sapiens; Colon, DLD-1, 72 hours
Method: as §1, §2

MKN-1 = assay: PROLiFiler-Cell Panel Screening (CellTiterGlo); type: cell-based; conditions: Homo sapiens; Stomach, MKN-1, 72 hours
Method: as §1, §2

[4] = Ag^+ transport into liposomes with encapsulated BCS; conditions: after 100 s, silver gradient of 50 μM, 1:1000 transporter to lipid ratio, added from DMSO
Method: Liposomes with BCS encapsulated were prepared as described above in the part entitled “II—C—1—Determination of the transport of Cu^+by the examples of calix[4]arenes” and measurements were performed as described in this part.
A Ag^+ solution was prepared by dissolving AgNO3 in a phosphate buffer at 3.05 mM concentration. After the first 30 seconds of the experiment, 50 μL of the Ag^+ solution was added to 3 mL of liposomes, resulting in a silver gradient of 50 μM. The fluorescence level was monitored for 600 seconds after the addition of the copper solution.
When a solution of DMSO with the calix[4]arene of the formula (2) was added to the liposomes (5 μL, to obtain a 1:1000 transport to lipid ratio) the decrease in fluorescence intensity of BCS was much faster (F/F0=0.55 after 100 s) compared to when DMSO without calix[4]arene of the formula (2) (5 μL) was added (F/F0=0.85 after 100 s).

| Structure (SMILES) | IC50 (MDA MB 435) [nM] | IC50 (NCI-H1563) [nM] | IC50 (HCC38) [nM] | IC50 (KARPAS 299) [nM] | IC50 (Colo 205) [nM] | IC50 (U118MG) [nM] | IC50 (SiHa) [nM] | IC50 (EFO-27) [nM] | IC50 (U87MG) [nM] | IC50 (MOLM-13) [nM] | IC50 (SK-OV3) [nM] | IC50 (HT-29) [nM] | IC50 (HL-60) [nM] | IC50 (COV434) [nM] | IC50 (NCI-H1838) [nM] | IC50 (T84) [nM] | IC50 (COR-L279) [nM] | IC50 (Hep3B2.1-7) [nM] | IC50 (LnCap) [nM] | IC50 (A375) [nM] | further results |
| --- | --- | --- | --- | --- | --- | --- | --- | --- | --- | --- | --- | --- | --- | --- | --- | --- | --- | --- | --- | --- | --- |
| CCCOc1c2cccc1Cc1cccc(c1OCc1nccn1C)Cc1cccc(c1OCCC)Cc1cccc(c1OCc1nccn1C)C2 [(2)] | 2770 | 3440 | 2530 | 1480 | 1810 | 2030 | 1250 | 1520 | 2460 | 1710 | 1620 | 1200 | 1450 | 732 | 3480 | 2440 | 1510 | 781 | 1190 | 1170 | proliferation index Nt/N0 (FIG. 3) [1]: clearly inhibits the proliferation; viability at 0.1 µM [2]: 96.5%; viability at 0.5 µM [2]: 94.1%; viability at 1 µM [2]: 87%; viability at 1.5 µM [2]: 62.6%; IC50 [3]: 1050 nM; IC50 (Caki-2): 2610 nM; IC50 (DLD-1): 1080 nM; IC50 (MKN-1): 2160 nM; F/F0 (fluorescence intensity of BCS) [4]: 0.55 |
| CC(C)C[C@H](NC(=O)[C@H](Cc1ccccc1)NC(=O)c1cnccn1)B(O)O [bortezomib, reference compound] | 4.3 | 19.5 | 5.41 | 3.96 | 6.79 | 4.14 | 7.41 | 13.2 | 8.02 | 3.91 | 24 | 5.99 | 3.73 | 9.24 | 34.1 | 12.1 | 4.94 | 7.98 | 14.1 | 5.44 | IC50 (Caki-2): 12.8 nM; IC50 (DLD-1): 6.83 nM; IC50 (MKN-1): 4.32 nM |
